Assay: Blood glucose levels during exercise
Type: in vivo, human
Settings: mean (SD)
Method: A high-intensity exercise protocol was designed as a double-blind, crossover study to assess the influence of D-Ribose adaptation to physical stress. Specifically, D-Ribose and a control (Dextrose) were administered on separate subjects at a dosage of ten grams per day (10 g/day). A variety of physiological parameters were measured in the subjects administered D-Ribose (DR) supplementation (i.e., the DR subjects) versus the subjects administered Dextrose (DEX) supplementation (i.e., the DEX subjects). To test D-ribose for adaptation, the twenty-six (26) adult subjects were further divided into two subgroups based on their fitness level (i.e., peak oxygen uptake (VO2 max) results. The first subgroup comprised subjects with higher VO2 max results (i.e., the “Fit Subgroup”) and the second subgroup comprised subjects with lower VO2 max results (i.e., the “Unfit Subgroup”). The Unfit Subgroup consisted of six (6) females and seven (7) males. The average age of the Unfit Subgroup was 27.7±3.4 years and the average peak VO2 of the Unfit Subgroup was 39.9±4.1 mL/kg/min. The Fit Subgroup consisted of four (4) females and nine (9) males. The average age of the Fit Subgroup was 27.6±3.5 year and the average peak VO2 of the Fit Subgroup was 52.2±4.3 mL/kg/min. Physiologic parameters were measured and hydration was provided to the subjects during the exercise session. The same protocol for testing and hydration protocol was followed for both DR subjects and DEX subjects. Blood samples were drawn from each subject via a venipuncture technique at the following time periods: • Ten (10) minutes before commencement of exercise; • Twenty (20) minutes after the commencement of and during exercise; • Forty (40) minutes after the commencement of and during exercise; • Sixty (60) minutes after the commencement of and during exercise; and • Twenty-four (24) hours after the conclusion of exercise (twenty-five (25) hours after the commencement of exercise). Blood glucose was measured at all of the above time points except at twenty-four (24) hours post-exercise. Creatine kinase and BUN levels were measured at the pre-exercise (−10 min.) point during the three (3) days of exercise and twenty-four (24) hours post-exercise following the third (last) exercise session. Heart rate was recorded using a Polar HR monitor. Blood glucose levels were measured using a Bayer glucose monitor. Blood lactate levels were measured by an AccuSport Lactate Analyzer. Creatine kinase and BUN were measured utilizing an Abaxis Piccolo analyzer. Power data from the time trial performance test was assessed with the Sports Medicine Industries (SMI) software package.

Row | SMILES | Blood glucose level during exercise (Fit Subgroup, 19.5) | Blood glucose level during exercise (Fit Subgroup, 39.5) | Blood glucose level during exercise (Fit Subgroup, 59.5) | Blood glucose level during exercise (Unfit Subgroup, 19.5) | Blood glucose level during exercise (Unfit Subgroup, 39.5) | Blood glucose level during exercise (Unfit Subgroup, 59.5)
1 | O=C[C@H](O)[C@@H](O)[C@H](O)[C@H](O)CO [DEX, Dextrose, reference compound] | 4.0 (0.6) mM/L | 4.1 (0.7) mM/L | 4.0 (0.6) mM/L | 4.0 (0.5) mM/L | 4.0 (0.5) mM/L | 3.9 (0.6) mM/L
2 | O=C[C@H](O)[C@H](O)[C@H](O)CO [DR, D-Ribose] | 3.8 (0.5) mM/L | 4.0 (0.5) mM/L | 3.9 (0.5) mM/L | 4.0 (0.6) mM/L | 4.0 (0.6) mM/L | 4.1 (0.7) mM/L

From US20210227854A1, “USE OF D-RIBOSE TO ENHANCE ADAPTATION TO PHYSICAL STRESS” (Bioenergy Life Science, Inc., priority 2014, published 2021)
